In patent publication US8247211B2, “Glycopeptide antibiotics” (American Cyanamid Company, priority 2001, dated 2012):
In brackets after ≈: the same amount, converted by molar mass.

Tests used:
[1] = tested on: Staphylococcus aureus-SMITH (GC 4543); experiment: Acute lethal infection in mice (ED50); assay type: in vivo; conditions: female CD-1 mice, intraperitoneal challenge, intravenous dose 30 min. after infection, 7 day survival ratios
In short: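 Median effective dose is calculated from 7-day survival ratios pooled across three separate tests. Mice (female CD-1) receive an intraperitoneal bacterial challenge in broth or hog gastric mucin, then intravenous drug 30 min later, five animals per dose level.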

Escherichia coli = experiment: In vitro antibacterial evaluation: minimum inhibitory concentration (MIC), broth dilution method; assay type: cell-based; conditions: Escherichia coli (GC 4560); 18 hours at 35° C.
In short: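 Following NCCLS approved standard M7-A2, compounds are serially diluted from 64 to 0.06 μg/mL in Muller-Hinton II […] and inoculated at 5×10^5 CFU/mL; the MIC is the minimum concentration at which growth is inhibited.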

Enterococcus sp. = experiment: as above; assay type: cell-based; conditions: 18 hours at 35° C.
In short: (§1)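 NCCLS M7-A2 broth dilution; Muller-Hinton II […]; 5×10^5 CFU/mL; 64-0.06 μg/mL. MIC = lowest concentration with no growth.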

Streptococcus sp. = experiment: as above; assay type: cell-based; conditions: 18 hours at 35° C.
In short: as §1

Staphylococcus sp. = experiment: as above; assay type: cell-based; conditions: 18 hours at 35° C.
In short: as §1

[2] = broth dilution, inoculum 5×10^5 CFU/mL

For CCCOc1ccc(COCC2OC(OC3C(CO)OC(Oc4ccc(CC5NC(=O)C(C(C)c6ccccc6)NC(=O)CNC(=O)C(CO)NC(=O)C(C(O)C6CNC(=N)N6C6OC(CO)C(O)C(O)C6O)NC(=O)C(C(O)C6CNC(=N)N6)NC5=O)cc4)C(O)C3O)C(O)C(O)C2O)cc1 (stereo not drawn) [Example 235, Cyclo[glycyl-β-methylphenylalanyl-O-[4-O-[6-O-(4-propoxybenzyl)hexopyranosyl]hexopyranosyl]tyrosyl-3-(2-iminoimidazolidin-4-yl)seryl-3-(3-hexopyranosyl-2-iminoimidazolidin-4-yl)serylseryl]], the median effective dose (ED50), Staphylococcus aureus-SMITH (GC 4543) [1] was 0.59 mg/kg, the “MIC Escherichia coli (GC 4560)” value (Escherichia coli) was 0.5 to 1 µg/mL and the “MIC Enterococcus avium (GC 4558)” value (Enterococcus sp.; Enterococcus avium (GC 4558)) was 4 µg/mL (≈ 2.77 µM). The “MIC Enterococcus faecalis (ATCC 29212)” value (Enterococcus sp.; Enterococcus faecalis (ATCC 29212)) was 4 µg/mL (≈ 2.77 µM), the “MIC Enterococcus faecalis (GC 2242)” value (Enterococcus sp.; Enterococcus faecalis (GC 2242)) was 4 µg/mL (≈ 2.77 µM) and the “MIC Enterococcus faecalis (GC 2691)” value (Enterococcus sp.; Enterococcus faecalis (GC 2691)) was 4 µg/mL (≈ 2.77 µM). The “MIC Enterococcus faecalis (GC 3059)” value (Enterococcus sp.; Enterococcus faecalis (GC 3059)) was 4 to 8 µg/mL, the “MIC Enterococcus faecalis (GC 4552)” value (Enterococcus sp.; Enterococcus faecalis (GC 4552)) was 4 µg/mL (≈ 2.77 µM) and the “MIC Enterococcus faecalis (GC 4553)” value (Enterococcus sp.; Enterococcus faecalis (GC 4553)) was 4 µg/mL (≈ 2.77 µM). The “MIC Enterococcus faecalis (GC 4554)” value (Enterococcus sp.; Enterococcus faecalis (GC 4554)) was 4 to 8 µg/mL, the “MIC Enterococcus faecalis (GC 6189)” value (Enterococcus sp.; Enterococcus faecalis (GC 6189)) was 4 µg/mL (≈ 2.77 µM) and the “MIC Enterococcus faecium (GC 2243)” value (Enterococcus sp.; Enterococcus faecium (GC 2243)) was 4 µg/mL (≈ 2.77 µM). For the same compound, the “MIC Enterococcus faecium (GC 4556)” value (Enterococcus sp.; Enterococcus faecium (GC 4556)) was 4 µg/mL (≈ 2.77 µM), the “MIC Enterococcus faecium (GC 4557)” value (Enterococcus sp.; Enterococcus faecium (GC 4557)) was 0.5 to 2 µg/mL and the “MIC Enterococcus faecalis (GC 2242)” value (Enterococcus sp.; [2]) was 4 µg/mL (≈ 2.77 µM). For the same compound, the “MIC Enterococcus faecalis (GC 2691)” value (Enterococcus sp.; [2]) was 4 µg/mL (≈ 2.77 µM), the “MIC Enterococcus faecalis (GC 3059)” value (Enterococcus sp.; [2]) was 4 to 8 µg/mL and the “MIC Streptococcus pneumoniae (ATCC 6301)” value (Streptococcus sp.; Streptococcus pneumoniae (ATCC 6301)) was 0.12 µg/mL (≈ 0.0831 µM). The “MIC Streptococcus pneumoniae (GC 1894)” value (Streptococcus sp.; Streptococcus pneumoniae (GC 1894)) was under 0.06 µg/mL, the “MIC Streptococcus pyogenes (GC 4563)” value (Streptococcus sp.; Streptococcus pyogenes (GC 4563)) was 0.25 µg/mL (≈ 0.173 µM) and the “MIC Streptococcus pneumoniae (ATCC 6301)” value (Streptococcus sp.; [2]) was 0.12 µg/mL (≈ 0.0831 µM). For the same compound, the “MIC Streptococcus pneumoniae (GC 1894)” value (Streptococcus sp.; [2]) was under 0.06 µg/mL, the “MIC Streptococcus pyogenes (GC 4563)” value (Streptococcus sp.; [2]) was 0.25 µg/mL (≈ 0.173 µM) and the “MIC Coagulase Negative Staphylococcus (GC 4547)” value (Staphylococcus sp.; Coagulase Negative Staphylococcus (GC 4547)) was 0.5 to 1 µg/mL. The “MIC Coagulase Negative Staphylococcus (GC 4551)” value (Staphylococcus sp.; Coagulase Negative Staphylococcus (GC 4551)) was 0.5 to 1 µg/mL, the “MIC Staphylococcus aureus (ATCC 29213)” value (Staphylococcus sp.; Staphylococcus aureus (ATCC 29213)) was 0.5 to 1 µg/mL and the “MIC Staphylococcus aureus (GC 1131)” value (Staphylococcus sp.; Staphylococcus aureus (GC 1131)) was 1 to 2 µg/mL. For the same compound, the “MIC Staphylococcus aureus (GC 3051)” value (Staphylococcus sp.; Staphylococcus aureus (GC 3051)) was 0.5 to 2 µg/mL, the “MIC Staphylococcus aureus (GC 3053)” value (Staphylococcus sp.; Staphylococcus aureus (GC 3053)) was 1 to 2 µg/mL and the “MIC Staphylococcus aureus (GC 4541)” value (Staphylococcus sp.; Staphylococcus aureus (GC 4541)) was 0.5 to 1 µg/mL. For the same compound, the “MIC Staphylococcus aureus (GC 4542)” value (Staphylococcus sp.; Staphylococcus aureus (GC 4542)) was 0.5 to 2 µg/mL, the “MIC Staphylococcus aureus (GC 4544)” value (Staphylococcus sp.; Staphylococcus aureus (GC 4544)) was 1 to 2 µg/mL and the “MIC Staphylococcus aureus (GC 4545)” value (Staphylococcus sp.; Staphylococcus aureus (GC 4545)) was 1 to 2 µg/mL. The “MIC Staphylococcus aureus-SMITH (GC 4543)” value (Staphylococcus sp.; Staphylococcus aureus-SMITH (GC 4543)) was 0.5 to 1 µg/mL.
